# Numbering of substitutions follows the chain as printed. Like-named read-outs stand apart in the source and are kept apart here.
# Legend:
# MGL = target: T1, MGL (Rattus norvegicus, UniProt Q8R431); assay: 2-AG accumulation assay in rat brain homogenate; format: biochemical; conditions: rat brain homogenate, 2-AG accumulation as percent of vehicle; for 2-AG accumulation, % of vehicle control at 1 µM: compound 1 μM, read-out: Rat Brain 2AG % VehCntrl (%) @ 1 μM; for 2-AG accumulation, % of vehicle control at 10 µM: compound 10 μM, read-out: Rat Brain 2AG % VehCntrl (%) @ 10 μM; for 2-AG accumulation, % of vehicle control at 0.1 µM: compound 0.1 μM, read-out: Rat Brain 2AG % VehCntrl (%) @ 0.1 μM
# T1 construct: one g rat brain was homogenized using a Polytron homogenizer; from tissue; host or cells: rat brain homogenate
# T1 sequence (Q8R431 1-303): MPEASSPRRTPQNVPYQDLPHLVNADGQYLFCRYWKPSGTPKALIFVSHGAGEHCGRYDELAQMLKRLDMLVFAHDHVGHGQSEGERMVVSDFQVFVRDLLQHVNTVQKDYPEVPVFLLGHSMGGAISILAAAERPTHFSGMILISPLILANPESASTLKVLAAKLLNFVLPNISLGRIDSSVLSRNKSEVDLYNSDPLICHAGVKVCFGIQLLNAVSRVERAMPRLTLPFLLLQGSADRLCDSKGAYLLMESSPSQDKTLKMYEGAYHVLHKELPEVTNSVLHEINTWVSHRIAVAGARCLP
# mutant MGL = target: T2, mutant MGL (Homo sapiens, UniProt Q99685, L169S/L176S); assay: MGL ThermoFluor assay - mutant; format: binding
# T2 sequence (Q99685 1-303 L169S/L176S): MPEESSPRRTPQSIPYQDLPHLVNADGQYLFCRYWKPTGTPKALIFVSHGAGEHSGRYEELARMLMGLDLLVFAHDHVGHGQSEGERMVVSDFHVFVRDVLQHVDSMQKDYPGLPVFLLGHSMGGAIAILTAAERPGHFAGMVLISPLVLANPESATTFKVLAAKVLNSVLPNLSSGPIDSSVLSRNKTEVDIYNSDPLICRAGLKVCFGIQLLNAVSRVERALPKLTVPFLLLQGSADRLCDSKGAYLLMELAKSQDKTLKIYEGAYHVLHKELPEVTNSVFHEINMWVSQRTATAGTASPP
# [1] = target: T3, purified wild type MGL (wt-MGLL 6H-11-313) (Homo sapiens, UniProt Q99685)
# T3 sequence (Q99685 1-303): T2 sequence (Q99685 1-303 L169S/L176S) with S169L, S176L
# [2] = ThermoFluor concentration-response, read-out: MGL mutant ThermoFluor Kd
# [3] = ThermoFluor thermal stability binding assay, read-out: MGL mutant ThermoFluor Kd
Structure (SMILES),"2-AG accumulation, % of vehicle control at 1 µM (MGL) [%]",Kd (mutant MGL; [2]) [µM],IC50 [1] [nM],"2-AG accumulation, % of vehicle control at 10 µM (MGL) [%]",Kd (mutant MGL; [3]) [µM],"2-AG accumulation, % of vehicle control at 0.1 µM (MGL) [%]","Kd (mutant MGL; ThermoFluor, compound concentration measured by qNMR, read-out: MGL mutant ThermoFluor qKd (μM) (using qNMR conc.)) [µM]"
"O=C(c1ccc(-c2ccc(Br)cc2)cc1)N1CC(N2CCN(C(=O)c3cscn3)CC2)C1 [Cpd 172, 1-{1-[(4′-Bromobiphenyl-4-yl)carbonyl]azetidin-3-yl}-4-(1,3-thiazol-4-ylcarbonyl)piperazine]",217,0.1,7.3,,,,
"O=C(c1ccc(-c2ccc(F)cc2)cc1)N1CC(N2CCN(C(=O)c3cscn3)CC2)C1 [Cpd 225, 1-{1-[(4′-Fluorobiphenyl-4-yl)carbonyl]azetidin-3-yl}-4-(1,3-thiazol-4-ylcarbonyl)piperazine]",,,54.7,656,0.02,,
"O=C(c1cscn1)N1CCN(C2CN(C(=O)c3ccc(-c4cccc(C(F)(F)F)c4)cc3F)C2)CC1 [Cpd 245, 1-(1-{[3-Fluoro-3′-(trifluoromethyl)biphenyl-4-yl]carbonyl}azetidin-3-yl)-4-(1,3-thiazol-4-ylcarbonyl)piperazine]",518,,16.4,829,0.0095,224,
"COc1cc(C(=O)N2CC(N3CCN(C(=O)c4cscn4)CC3)C2)ccc1-c1cccc(C(F)(F)F)c1 [Cpd 248, 1-(1-{[2-Methoxy-3′-(trifluoromethyl)biphenyl-4-yl]carbonyl}azetidin-3-yl)-4-(1,3-thiazol-4-ylcarbonyl)piperazine]",312,,7,,0.0067,,
"Cc1cc(-c2ccc(Cl)c(C(F)(F)F)c2)ccc1C(=O)N1CC(N2CCN(C(=O)c3cscn3)CC2)C1 [Cpd 254, 1-(1-{[4′-Chloro-3-methyl-3′-(trifluoromethyl)biphenyl-4-yl]carbonyl}azetidin-3-yl)-4-(1,3-thiazol-4-ylcarbonyl)piperazine]",544,,< 5,,0.0059,,
"Cc1cc(C(=O)N2CC(N3CCN(C(=O)c4cscn4)CC3)C2)ccc1-c1ccc(F)c(Cl)c1 [Cpd 257, 1-{1-[(3′-Chloro-4′-fluoro-2-methylbiphenyl-4-yl)carbonyl]azetidin-3-yl}-4-(1,3-thiazol-4-ylcarbonyl)piperazine]",285,,< 5,,0.0033,,
"COc1cc(C(=O)N2CC(N3CCN(C(=O)c4cscn4)CC3)C2)ccc1-c1ccc(Cl)c(C(F)(F)F)c1 [Cpd 262, 1-(1-{[4′-Chloro-2-methoxy-3′-(trifluoromethyl)biphenyl-4-yl]carbonyl}azetidin-3-yl)-4-(1,3-thiazol-4-ylcarbonyl)piperazine]",386,,< 5,,0.0025,,
"COc1cc(C(=O)N2CC(N3CCN(C(=O)c4ccccc4)CC3)C2)ccc1-c1ccc(F)c(Cl)c1 [Cpd 263, 1-{1-[(3′-Chloro-4′-fluoro-2-methoxybiphenyl-4-yl)carbonyl]azetidin-3-yl}-4-(phenylcarbonyl)piperazine]",199,,28.5,,0.005,,
"O=C(c1cscn1)N1CCN(C2CN(C(=O)c3ccc(-c4ccc(F)c(Cl)c4)cc3Cl)C2)CC1 [Cpd 265, 1-{1-[(3,3′-Dichloro-4′-fluorobiphenyl-4-yl)carbonyl]azetidin-3-yl}-4-(1,3-thiazol-4-ylcarbonyl)piperazine]",162,,19,643,0.0198,126,
"O=C(c1ccc2c(-c3ccccc3)cccc2c1)N1CC(N2CCN(C(=O)c3nccs3)CC2)C1 [Cpd 338, 1-{1-[(5-Phenylnaphthalen-2-yl)carbonyl]azetidin-3-3yl}-4-(1,3-thiazol-2-ylcarbonyl)piperazine]",,,< 5,791,0.0011,,
"O=C(c1ccc2c(c1)CCCN2)N1CC(N2CCN(C(=O)c3nccs3)CC2)C1 [Cpd 357, 6-(3-[4-(1,3-Thiazol-2-ylcarbonyl)piperazin-1-yl]-azetidin-1-yl)carbonyl-1,2,3,4-tetrahydroquinoline]",152,,3750,,0.238,,
"O=C(c1ccc(Oc2cccc(C(F)(F)F)c2)cc1)N1CC(N2CCN(C(=O)c3nccs3)CC2)C1 [Cpd 424, 1-(1,3-Thiazol-2-ylcarbonyl)-4-[1-({4-[3-(trifluoromethyl)phenoxy]phenyl}carbonyl)azetidin-3-yl]piperazine]",436,0.00941,< 5,,,,
O=C(c1ccc(Sc2cccc(C(F)(F)F)c2)cc1)N1CC(N2CCN(C(=O)c3cscn3)CC2)C1 [Cpd 432],321,0.025,< 5,,,,
Cc1c(-c2ccccc2)oc2c(C(=O)N3CC(N4CCN(C(=O)c5nccs5)CC4)C3)cccc2c1=O [Cpd 476],,0.0667,338,272,,,
O=C(c1ccccc1)N1CCN(C2CN(C(=O)c3ccc(Oc4ncc(C(F)(F)F)cc4Cl)cc3)C2)CC1 [Cpd 507],190,0.317,52,,,,
O=C(c1ccccc1)N1CCN(C2CN(C(=O)c3ccc(S(=O)(=O)c4cccc(C(F)(F)F)c4)cc3)C2)CC1 [Cpd 508],119,0.162,107,,,,
O=C(c1ccccc1)N1CCN(C2CN(C(=O)c3ccc4c(ccn4-c4cc(F)c(F)c(F)c4)c3)C2)CC1 [Cpd 569],198,,21,,,,0.059

# Now from value to compound:
"2-AG accumulation, % of vehicle control at 1 µM (MGL) [%]",Kd (mutant MGL; [2]) [µM],IC50 [1] [nM],"2-AG accumulation, % of vehicle control at 10 µM (MGL) [%]",Kd (mutant MGL; [3]) [µM],"2-AG accumulation, % of vehicle control at 0.1 µM (MGL) [%]","Kd (mutant MGL; ThermoFluor, compound concentration measured by qNMR, read-out: MGL mutant ThermoFluor qKd (μM) (using qNMR conc.)) [µM]",Structure (SMILES)
157,,13.4,,0.0333,,,"Cc1cc(-c2ccc(Cl)c(C(F)(F)F)c2)ccc1C(=O)N1CC(N2CCN(C(=O)c3ccccc3)CC2)C1 [Cpd 256, 1-(1-{[4′-Chloro-3-methyl-3′-(trifluoromethyl)biphenyl-4-yl]carbonyl}azetidin-3-yl)-4-(phenylcarbonyl)piperazine]"
,,1220,520,0.0626,,,"O=C(c1ccccc1)N1CCN(C2CN(C(=O)c3cc4cccc(C(F)(F)F)c4s3)C2)CC1 [Cpd 329, 1-(Phenylcarbonyl)-4-(1-{[7-(trifluoromethyl)-1-benzothiophen-2-yl]carbonyl}azetidin-3-yl)piperazine]"
197,,308,,0.438,,,"O=C(c1ccccc1)N1CCN(C2CN(C(=O)c3cc4c(C(F)(F)F)cccc4s3)C2)CC1 [Cpd 330, 1-(Phenylcarbonyl)-4-(1-{[4-(trifluoromethyl)-1-benzothiophen-2-yl]carbonyl}azetidin-3-yl)piperazine]"
109,0.123,170,,,,,"O=C(c1ccccc1)N1CCN(C2CN(C(=O)c3ccc(Oc4cccc(C(F)(F)F)c4)cc3)C2)CC1 [Cpd 419, 1-(Phenylcarbonyl)-4-[1-({4-[3-(trifluoromethyl)phenoxy]phenyl}carbonyl)azetidin-3-yl]piperazine]"
114,0.0667,23.6,,,,,O=C(c1ccccc1)N1CCN(C2CN(C(=O)c3ccc(Sc4cccc(C(F)(F)F)c4)cc3)C2)CC1 [Cpd 430]
178,,10,,0.024,,,Cc1c(C(=O)N2CC(N3CCN(C(=O)c4ccccc4)CC3)C2)sc2ccc(C(F)(F)F)cc12 [Cpd 504]
236,0.01,39,,,,,Cc1c(C(=O)N2CC(N3CCN(C(=O)c4ccccc4)CC3)C2)sc2cc(C(F)(F)F)ccc12 [Cpd 505]
132,0.059,48,,,,,O=C(c1ccccc1)N1CCN(C2CN(C(=O)c3sc4ccc(Cl)cc4c3C(F)(F)F)C2)CC1 [Cpd 506]
652,0.072,< 5,,,,,O=C(c1ccccc1)N1CCN(C2CN(C(=O)c3ccc(Cc4cccc(C(F)(F)F)c4)cc3)C2)CC1 [Cpd 547]

# From patent US8362000B2, “Azetidinyl diamides as monoacylglycerol lipase inhibitors” (Janssen Pharmaceutica NV, priority 2009, dated 2013)
